# Test results reported in ChEMBL document CHEMBL3271977, “Stereospecific interaction of the quaternized opiate, N-methyllevorphanol, with opiate receptors” (J Med Chem, 1976).
# Activity calls are given as the source filed them. No cut-off for these calls is given here.
# Assays:
# [1] = Displacement of [3H]etorphine from opioid receptor in guinea pig brain homogenate by scintillation counting analysis; assay type: tissue-based, Cavia porcellus
# Ileum [2] = test: Inhibition of electrically-induced contraction of guinea pig ileum longitudinal muscle with myentric plexus; assay type: functional, tissue-based; details: Cavia porcellus
# Ileum [3] = test: Inhibition of electrically-induced contraction of guinea pig ileum longitudinal muscle with myentric plexus in presence of naloxone; assay type: functional, tissue-based; details: Cavia porcellus
# Ileum [4] = test: Reduction in response of guinea pig ileum longitudinal muscle to exogenous acetylcholine; assay type: functional, tissue-based; details: Cavia porcellus
# Ileum [5] = test: Stimulation of guinea pig ileum longitudinal muscle contraction relative to levorphanol; assay type: functional, Cavia porcellus
# Ileum [6] = test: Inhibition of electrically-induced contraction of guinea pig ileum longitudinal muscle relative to levorphanol; assay type: functional, Cavia porcellus
# Ileum [7] = test: Inhibition of electrically-induced contraction of guinea pig ileum longitudinal muscle with myentric plexus up to 10^-5 M; assay type: functional, tissue-based; details: Cavia porcellus
# Ileum [8] = test: Inhibition of electrically-induced contraction of guinea pig ileum longitudinal muscle with myentric plexus at 4 X 10^-5 M; assay type: functional, tissue-based; details: Cavia porcellus
SMILES,IC50 [1] [nM],IC50 (Ileum [2]) [nM],inhibition (Ileum [2]),inhibition (Ileum [3]),inhibition (Ileum [4]),fold change (FC) (Ileum [5]),fold change (FC) (Ileum [6]),inhibition (Ileum [7]),inhibition (Ileum [8])
CN1CC[C@]23CCCC[C@H]2[C@H]1Cc1ccc(O)cc13 [LEVORPHANOL],8,–,–,–,–,–,–,–,–
C[N+]1(C)CC[C@]23CCCC[C@H]2[C@H]1Cc1ccc(O)cc13.[I-],520,610,Dose-dependent effect,inactive,inactive,0.068,0.032,–,–
C[N+]1(C)CC[C@@]23CCCC[C@@H]2[C@@H]1Cc1ccc(O)cc13,–,–,–,–,–,–,–,inactive,Active
